Reference: ChEMBL document CHEMBL3763102, “4-Aryl-3-arylsulfonyl-quinolines as negative allosteric modulators of metabotropic GluR5 receptors: From HTS hit to development candidate” (Bioorg Med Chem Lett, 2016)
The source made the active and inactive calls. The calls are words filed in the database; no cut-off is given here.

Assays:
Liver microsome [1] = assay: Intrinsic clearance in human liver microsomes at 2.5 uM; type: ADME
Liver microsome [2] = assay: Intrinsic clearance in Wistar rat liver microsomes at 2.5 uM; type: ADME
[3] = target: T1, Metabotropic glutamate receptor 5 (Homo sapiens, UniProt P41594); assay: Displacement of [3H]MPEP from recombinant human mGluR5a expressed in A18 cells measured after 1 hr; type: cell-based
[4] = target: T2, Metabotropic glutamate receptor 5 (Rattus norvegicus, UniProt P31424); assay: Displacement of [3H]MPEP from rat mGlu5 receptor expressed in rat cerebrocortical membrane measured after 1 hr; type: cell membranes
[5] = target: T2, Metabotropic glutamate receptor 5; assay: Displacement of [3H]-MPEP from rat mGlu5 receptor expressed in HEK293 cell membranes after 1 hr by scintillation counting analysis
[6] = target: T1, Metabotropic glutamate receptor 5; assay: Displacement of [3H]-MPEP from human mGlu5 receptor expressed in HEK293 cell membranes after 1 hr by scintillation counting analysis
Rattus norvegicus [7] = assay: Anxiolytic activity in water deprived rat assessed as increase in number of accepted shocks at 1 mg/kg, po after 1 hr by Vogel punished drinking test; type: functional, organism-based
Homo sapiens [8] = assay: Toxicity in human assessed as change in ECG administered as bid for 10 to 14 days by multiple ascending dose study; type: organism-based; settings: in vivo
Homo sapiens [9] = assay: Toxicity in human assessed as change in ECG administered as qd for 10 to 14 days by multiple ascending dose study; type: organism-based; settings: in vivo
Homo sapiens [10] = assay: Toxicity in human assessed as suicidal ideation and behavior administered as bid for 10 to 14 days by multiple ascending dose study; type: organism-based; settings: in vivo
Homo sapiens [11] = assay: Toxicity in human assessed as suicidal ideation and behavior administered as qd for 10 to 14 days by multiple ascending dose study; type: organism-based; settings: in vivo
Homo sapiens [12] = species: Homo sapiens; assay: Toxicity in human at 1 to 120 mg by single ascending dose study; type: organism-based; settings: in vivo
Rattus norvegicus [13] = assay: Anxiolytic activity in water deprived rat assessed as increase in number of accepted shocks at 10 mg/kg, po after 1 hr by Vogel punished drinking test; type: functional, organism-based

T2 sequence (P31424 whole entry): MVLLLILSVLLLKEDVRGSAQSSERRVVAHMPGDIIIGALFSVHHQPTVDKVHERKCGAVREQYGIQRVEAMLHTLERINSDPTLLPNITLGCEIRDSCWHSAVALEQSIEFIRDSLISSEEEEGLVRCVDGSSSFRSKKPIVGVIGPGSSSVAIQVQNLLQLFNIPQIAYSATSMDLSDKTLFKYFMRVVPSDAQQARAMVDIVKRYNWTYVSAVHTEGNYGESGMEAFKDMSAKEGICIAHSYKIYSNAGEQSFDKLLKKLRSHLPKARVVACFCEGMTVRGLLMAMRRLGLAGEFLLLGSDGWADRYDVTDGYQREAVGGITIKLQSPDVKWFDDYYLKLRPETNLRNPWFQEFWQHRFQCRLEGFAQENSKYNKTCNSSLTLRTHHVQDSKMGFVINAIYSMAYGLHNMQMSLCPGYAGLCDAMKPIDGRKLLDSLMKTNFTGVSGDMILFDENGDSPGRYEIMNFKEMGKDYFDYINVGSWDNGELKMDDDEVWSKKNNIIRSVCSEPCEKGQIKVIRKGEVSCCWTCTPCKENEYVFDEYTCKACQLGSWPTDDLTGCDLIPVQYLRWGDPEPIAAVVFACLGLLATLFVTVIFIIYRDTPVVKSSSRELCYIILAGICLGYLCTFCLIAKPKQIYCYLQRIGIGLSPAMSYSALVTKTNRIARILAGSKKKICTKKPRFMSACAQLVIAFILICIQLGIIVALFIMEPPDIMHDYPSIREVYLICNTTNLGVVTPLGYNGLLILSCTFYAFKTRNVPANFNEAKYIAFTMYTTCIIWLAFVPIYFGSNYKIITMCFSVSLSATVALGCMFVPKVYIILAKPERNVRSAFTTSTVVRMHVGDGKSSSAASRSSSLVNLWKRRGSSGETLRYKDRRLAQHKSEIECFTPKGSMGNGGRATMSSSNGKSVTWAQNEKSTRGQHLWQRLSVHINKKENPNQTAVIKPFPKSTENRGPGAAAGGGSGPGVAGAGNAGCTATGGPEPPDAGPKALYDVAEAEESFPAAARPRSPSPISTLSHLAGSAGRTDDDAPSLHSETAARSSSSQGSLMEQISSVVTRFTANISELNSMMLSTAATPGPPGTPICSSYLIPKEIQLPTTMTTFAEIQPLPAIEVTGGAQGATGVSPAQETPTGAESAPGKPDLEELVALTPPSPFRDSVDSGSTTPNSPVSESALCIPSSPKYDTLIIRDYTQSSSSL
T1 sequence (P41594 whole entry): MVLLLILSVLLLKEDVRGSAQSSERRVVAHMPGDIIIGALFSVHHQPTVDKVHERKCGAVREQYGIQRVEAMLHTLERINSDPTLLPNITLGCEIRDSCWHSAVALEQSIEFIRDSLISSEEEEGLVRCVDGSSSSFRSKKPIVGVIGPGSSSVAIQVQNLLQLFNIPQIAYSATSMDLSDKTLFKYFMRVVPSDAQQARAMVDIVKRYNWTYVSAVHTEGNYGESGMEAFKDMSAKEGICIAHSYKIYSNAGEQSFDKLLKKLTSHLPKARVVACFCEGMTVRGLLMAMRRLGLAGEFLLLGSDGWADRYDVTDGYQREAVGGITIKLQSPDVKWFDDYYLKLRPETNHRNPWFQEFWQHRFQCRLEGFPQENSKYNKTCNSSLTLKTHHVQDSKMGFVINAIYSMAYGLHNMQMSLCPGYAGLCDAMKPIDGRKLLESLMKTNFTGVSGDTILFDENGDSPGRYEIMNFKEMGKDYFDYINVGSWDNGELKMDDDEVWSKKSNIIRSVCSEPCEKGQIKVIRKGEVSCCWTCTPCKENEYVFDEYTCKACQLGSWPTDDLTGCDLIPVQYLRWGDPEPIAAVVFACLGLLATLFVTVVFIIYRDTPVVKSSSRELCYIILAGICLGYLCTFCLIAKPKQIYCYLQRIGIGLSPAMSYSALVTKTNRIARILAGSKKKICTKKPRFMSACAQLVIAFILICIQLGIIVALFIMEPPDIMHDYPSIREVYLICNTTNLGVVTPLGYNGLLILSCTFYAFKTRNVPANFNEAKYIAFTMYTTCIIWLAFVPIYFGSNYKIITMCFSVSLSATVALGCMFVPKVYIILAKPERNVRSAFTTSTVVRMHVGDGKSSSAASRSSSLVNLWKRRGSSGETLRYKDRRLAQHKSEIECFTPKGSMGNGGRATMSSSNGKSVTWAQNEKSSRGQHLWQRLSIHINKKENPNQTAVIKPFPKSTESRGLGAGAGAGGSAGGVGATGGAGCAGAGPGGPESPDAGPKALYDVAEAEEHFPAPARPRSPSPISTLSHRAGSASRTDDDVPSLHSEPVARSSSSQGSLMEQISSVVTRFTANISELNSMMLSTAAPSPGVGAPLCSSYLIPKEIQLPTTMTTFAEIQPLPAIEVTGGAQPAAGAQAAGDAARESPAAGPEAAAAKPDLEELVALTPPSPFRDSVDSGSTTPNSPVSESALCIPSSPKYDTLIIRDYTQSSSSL

Row | SMILES | CLH (Liver microsome [1]) [mL/min/g] | CLH (Liver microsome [2]) [mL/min/g] | Ki [4] [nM] | other results
1 | Cc1ccc(S(=O)(=O)c2cnc3ccccc3c2N2CCOCC2)cc1C | 3.37 | 18 | 68 | Ki [3]: 52 nM
2 | CN1CC(=O)N=C1NC(=O)Nc1cccc(Cl)c1 [FENOBAM ANHYDROUS] |  |  |  | IC50 [5]: 51 nM; IC50 [6]: 51 nM
3 | Cc1ccc(S(=O)(=O)c2sc3ncccc3c2-c2ccc(Cl)cc2)cc1 | 2.31 | 13.8 | 15 | 
4 | Cc1ccc(S(=O)(=O)c2cnc3ccccc3c2N2CCC(C)CC2)cc1 | 3.54 | 17.4 | 22 | 
5 | O=S(=O)(c1ccc(F)c(F)c1)c1cnc2c(F)cccc2c1-c1ccc(Cl)cc1 | 0.28 | 0.19 | 8.4 | 
6 | Cc1ccc(S(=O)(=O)c2cnc3ccccc3c2-c2ccc(Cl)cc2)cc1 | 2.12 | 17.5 | 9.5 | Ki [3]: 17 nM
7 | Cc1nc(C#Cc2cccnc2)cs1 |  |  |  | Activity (Rattus norvegicus [13]): Active

Now from value to compound, other results behind:

Row | CLH (Liver microsome [1]) [mL/min/g] | CLH (Liver microsome [2]) [mL/min/g] | Ki [4] [nM] | SMILES | other results
8 | 0.2 | 1.03 | 11.5 | O=S(=O)(c1cc(Cl)cc(Cl)c1)c1cnc2cc(F)ccc2c1-c1ccc(F)cc1 | 
9 | 0.31 | 0.25 | 5.3 | N#Cc1cccc(S(=O)(=O)c2cnc3cc(F)ccc3c2-c2ccc(Cl)cc2)c1 | Activity (Rattus norvegicus [7]): Active; Activity (Homo sapiens [8]): Non-toxic; Activity (Homo sapiens [9]): Non-toxic; Activity (Homo sapiens [10]): Non-toxic; Activity (Homo sapiens [11]): Non-toxic; Activity (Homo sapiens [12]): Non-toxic
10 | 0.5 | 0.88 | 5.2 | O=S(=O)(c1ccc(Cl)c(F)c1)c1cnc2cc(F)ccc2c1-c1ccc(F)cc1 | 
